Assay results published in patent US9512139B2, “Conformationally constrained, fully synthetic macrocyclic compounds” (POLYPHOR AG, priority 2009, dated 2016).

Key:
[1] = Metabolic stability assay, CD-1 mouse microsomes; type: in vitro ADME; conditions: CD-1, mouse, microsomes; for Metabolic Stability T½ [min] mouse / Metabolic Stability 60 min mouse [% remain.]: both, 10 µM; for Metabolic Stability 60 min mouse [% remain.]: 1 h
in vitro [2] = type: in vitro ADME, human; conditions: human, plasma; for Plasma Stability T½ [min] hum / Plasma Stability 240 min hum [% remain.]: 10 µM; for Plasma Stability 240 min hum [% remain.]: 4 h
Protocol: Example compounds were dissolved in DMSO/H2O 90:10 to a final concentration of 10 mM for plasma stability determination and metabolic stability determination.
Human plasma (3-5 donors, Blutspendedienst SRK, Basel) and CD-1 mouse plasma (mixed gender pool >50 animals, Innovative Research, CA, USA) are both sodium citrate stabilized. The assay is performed in triplicates at 10 μM compound concentration and 37° C. Samples are taken at 0, 15, 60, and 240 minutes and stopped by precipitation with 2 volumes of acetonitrile. The supernatant is collected, evaporated and reconstituted in a 5% acetonitrile solution to be analyzed by HPLC/MS/MS. The resulting peak area counts are expressed in percent of the 0 value and used to determine the endpoint stability in % and the half life in minutes. In order to monitor assay integrity the degradation of propantheline is assayed with every experimental set.

[3] = Metabolic stability assay, human microsomes; type: in vitro ADME; conditions: human, microsomes; for half-life at 10 µM: both sexes; for Metabolic Stability 60 min hum [% remain.] / Metabolic Stability T½ [min] hum: both, 10 µM; for Metabolic Stability 60 min hum [% remain.]: 1 h
[4] = target: T1, 5-hydroxytryptamine 2B (5-HT2B) Receptor (Homo sapiens, UniProt P41595); test: Ca2+ assay (FLIPR) for the GPCR 5-HT2B receptor, agonist and antagonist mode; type: cell-based
T1 construct: host or cells: Ca2+ optimized hematopoietic cell lines (rat)
T1 sequence (P41595 whole entry, species assumed): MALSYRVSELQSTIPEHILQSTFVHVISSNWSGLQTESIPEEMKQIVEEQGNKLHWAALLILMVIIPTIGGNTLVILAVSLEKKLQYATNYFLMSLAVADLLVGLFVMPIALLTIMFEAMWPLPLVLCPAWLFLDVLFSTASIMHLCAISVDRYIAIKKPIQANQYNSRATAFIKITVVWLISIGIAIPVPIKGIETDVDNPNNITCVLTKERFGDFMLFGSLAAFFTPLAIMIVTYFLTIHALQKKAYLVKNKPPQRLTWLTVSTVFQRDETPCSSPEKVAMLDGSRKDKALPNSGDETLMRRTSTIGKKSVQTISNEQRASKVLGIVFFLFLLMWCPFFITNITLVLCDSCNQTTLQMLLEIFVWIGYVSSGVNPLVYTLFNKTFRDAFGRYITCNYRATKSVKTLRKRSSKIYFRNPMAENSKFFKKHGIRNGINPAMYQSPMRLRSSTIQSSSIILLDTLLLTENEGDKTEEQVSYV
Protocol: Ca^2+ Assays for the GPCRs Motilin Receptor, Prostaglandin F (FP) Receptor, 5-hydroxytryptamine 2B (5-HT2B) Receptor, and Purinoreceptor P2Y1
Assays were performed using on a FLIPR^TETRA fluorometric imaging plate reader (Molecular Devices) with ScreenWorks Version 2 (Molecular Devices) as device operating and data analysis software.
Dose dependent agonist and antagonist activities were determined. Percentage activation and percentage inhibition values were determined.
Percentage activation was determined upon initial addition of the sample compounds followed by 10 minutes incubation at 25° C. Following compound incubation, reference agonists were added at EC80 to determine percentage inhibition.
Reference agonists were purchased from reputable commercial vendors and prepared according to each ligand's specifications. All handling of ligands were done to ensure proper control throughout the experiments.
Example compounds were weighed on a Microbalance (Mettler MX5) and dissolved in 100% DMSO to a final concentration of 2.5 mM and subsequently diluted into the assay buffer.
The Assay buffer was a supplemented HBSS (Hank's Balanced Salt Solution). HBSS was supplemented with 20 mM HEPES (4-(2-hydroxyethyl)-piperazin-1-ethansulfonic acid) and 2.5 mM Probenecid (Sigma P8761).
GPCR assays were performed using Ca^2+ optimized hematopoietic cell lines (rat) with cultures never exceeding 90% confluency. […] After seeding, the assay plates were incubated for forty-five (45) minutes at room temperature. After room temperature incubation, the assay plates were incubated at 37° C. 5% CO2 for 24 hours prior to assaying.
All GPCR assays were performed using Fluo-8 Ca^2+ dye. Ca^2+ dye was prepared at 1× dye concentration in GPCR assay buffer. After 24 hours of incubation, cells were washed with GPCR assay buffer, and then Ca^2+-dye (100 μL/well) was added.
The plates were incubated for 90 minutes at 30° C. 5% CO2 prior to FLIPR assay.
Compound plates were prepared to add 50 μL/well during the agonist assay mode. During the FLIPR assay, 50 μL/well from the compound plate was diluted 3-fold into the existing 100 μL/well from the dye loading step. Therefore all compounds were prepared as 3× the final concentration desired in the assay.
After completion of the first single addition assay run, assay plate was removed from the FLIPR Tetra and placed at 25° C. for seven (7) minutes before antagonist assay.
Using the EC80 values determined during the agonist assay, all pre-incubated sample compound and reference antagonist (if applicable) wells were stimulated at the EC80 of the reference agonist. As reference ligands for the first three assays their obvious natural ligands motilin, prostaglandin F2α, and serotonin (5-HT, 5-Hydroxytryptamine) were used; and for the P2Y1 assay 2MeSATP (2-methyl-thio-adeno-sine 5′-triphosphate, i.e. (2R,3S,4R)-5-(6-amino-2-methylsulfanyl-purin-9-yl)-3,4-dihydroxy-tetrahydrofuran-2-yl]methyl (hydroxy-phosphonooxy-phosphoryl)hydrogen phosphate) was applied.
After the addition of the reference agonist fluorescence was monitored for 180 sec using FLIPR Tetra.
Data Analysis and Results:
From the FLIPR data, with negative control correction enabled, the maximum statistic for each well was exported and percentage activation relative to Emax control was calculated.

in vitro [5] = type: in vitro ADME, mouse; conditions: both, CD-1, mouse, plasma, 10 µM
[6] = Metabolic stability assay, rat microsomes (values in parentheses); type: in vitro ADME; conditions: value in parentheses
[7] = Plasma stability assay, rat plasma (values in parentheses); type: in vitro ADME; conditions: value in parentheses
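Wherever Plasma Stability 240 min mouse [% remain.] is given: sodium citrate stabilized mouse plasma, parent compound quantified by HPLC/MS/MS relative to its peak area at time zero, run in triplicate.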
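Wherever Plasma Stability T½ [min] mouse is given: sodium citrate stabilized mouse plasma, parent compound quantified by HPLC/MS/MS relative to its peak area at time zero, run in triplicate.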

CN1CC(=O)N2C[C@@H](NC(=O)OC(C)(C)C)C[C@H]2COc2ccc(F)cc2C(=O)N(C)[C@H](C(=O)NCCc2c[nH]c3ccccc23)CCC1=O [Ex. 30, tert-butyl N-[(2S,11S,19aS)-15-fluoro-11-({[2-(1H-indol-3-yl)ethyl]amino}carbonyl)-7,12-dimethyl-5,8,13-trioxo-2,3,6,7,8,9,10,11,12,13,19,19a-dodecahydro-1H,5H-pyrrolo[2,1-c] [1,4,7,12]benzoxatriazacyclopentadecin-2-yl]carbamate]
Metabolic Stability T½ [min] mouse [1]: > 60 min | Metabolic Stability 60 min mouse [% remain.] [1]: 55 % remain. | Plasma Stability T½ [min] hum (in vitro [2]): > 240 min | Plasma Stability 240 min hum [% remain.] (in vitro [2]): 85 % remain. | half-life at 10 µM [3]: 0.367 h | Metabolic Stability 60 min hum [% remain.] [3]: 2 % remain. | EC50 [4]: 3.3 µM | Agonist activity [% activation at 12.5 μM] ([4]; 12.5 μM): 48% | Plasma Stability T½ [min] mouse (in vitro [5]): > 240 min | Plasma Stability 240 min mouse [% remain.] (in vitro [5]; 4 h): 100 % remain.

COCCNC(=O)[C@@H]1COCC(=O)N2C[C@@H](N)C[C@H]2COc2cccc(c2)C(=O)N1C [Ex. 369, (4S,6S,13S)-6-amino-N-(2-methoxyethyl)-14-methyl-9,15-dioxo-2,11-dioxa-8,14-diazatricyclo[14.3.1.0^4,8]icosa-1(20),16,18-triene-13-carboxamide]
Metabolic Stability T½ [min] mouse [1]: > 60 min | Metabolic Stability 60 min mouse [% remain.] [1]: 80 % remain. | Plasma Stability T½ [min] hum (in vitro [2]): > 240 min | Plasma Stability 240 min hum [% remain.] (in vitro [2]): 85 % remain. | Metabolic Stability T½ [min] hum [3]: > 60 min | Metabolic Stability 60 min hum [% remain.] [3]: 100 % remain. | Metabolic Stability 60 min (rat) [% remain.] [6]: 100 % remain. | Metabolic Stability T½ [min] (rat) [6]: 60 (60) min | Plasma Stability 240 min (rat) [% remain.] [7]: (79) % remain. | Plasma Stability T½ [min] (rat) [7]: (240) min

COCCNC(=O)[C@@H]1COCC(=O)N2C[C@@H](NCC(C)C)C[C@H]2COc2cccc(c2)C(=O)N1C [Ex. 376, (4S,6S,13S)-6-(isobutylamino)-N-(2-methoxyethyl)-14-methyl-9,15-dioxo-2,11-dioxa-8,14-diazatricyclo[14.3.1.0^4,8]icosa-1(20),16,18-triene-13-carboxamide]
Metabolic Stability T½ [min] mouse [1]: > 60 min | Metabolic Stability 60 min mouse [% remain.] [1]: 91 % remain. | Plasma Stability T½ [min] hum (in vitro [2]): > 240 min | Plasma Stability 240 min hum [% remain.] (in vitro [2]): 90 % remain. | Metabolic Stability T½ [min] hum [3]: > 60 min | Metabolic Stability 60 min hum [% remain.] [3]: 79 % remain. | Metabolic Stability 60 min (rat) [% remain.] [6]: 78 % remain. | Metabolic Stability T½ [min] (rat) [6]: 60 (60) min | Plasma Stability 240 min (rat) [% remain.] [7]: (89) % remain. | Plasma Stability T½ [min] (rat) [7]: (240) min

CN1C(=O)c2cccc(c2)OC[C@@H]2C[C@H](NC(=O)CCc3ccncc3)CN2C(=O)COC[C@H]1C(=O)NCc1ccc2ccccc2c1 [Ex. 372, (4S,6S,13S)-14-methyl-N-(2-naphthylmethyl)-9,15-dioxo-6-{[3-(4-pyridinyl)propanoyl]amino}-2,11-dioxa-8,14-diazatricyclo[14.3.1.0^4,8]icosa-1(20),16,18-triene-13-carboxamide]
Metabolic Stability T½ [min] mouse [1]: > 60 min | Metabolic Stability 60 min mouse [% remain.] [1]: 73 % remain. | Plasma Stability T½ [min] hum (in vitro [2]): > 240 min | Plasma Stability 240 min hum [% remain.] (in vitro [2]): 68 % remain. | half-life at 10 µM [3]: 0.767 h | Metabolic Stability 60 min hum [% remain.] [3]: 43 % remain. | Metabolic Stability 60 min (rat) [% remain.] [6]: 72 % remain. | Metabolic Stability T½ [min] (rat) [6]: 60 (60) min | Plasma Stability 240 min (rat) [% remain.] [7]: (100) % remain. | Plasma Stability T½ [min] (rat) [7]: (240) min

COCCNC(=O)[C@@H]1COCC(=O)N2C[C@@H](N3CCN(Cc4ccccc4)CC3)C[C@H]2COc2cccc(c2)C(=O)N1C [Ex. 378, (4S,6S,13S)-6-(4-benzylpiperazino)-N-(2-methoxyethyl)-14-methyl-9,15-dioxo-2,11-dioxa-8,14-diazatricyclo[14.3.1.0^4,8]icosa-1(20),16,18-triene-13-carboxamide]
Metabolic Stability T½ [min] mouse [1]: > 60 min | Metabolic Stability 60 min mouse [% remain.] [1]: 87 % remain. | half-life at 10 µM (in vitro [2]): 4 h | Plasma Stability 240 min hum [% remain.] (in vitro [2]): 48 % remain. | Metabolic Stability T½ [min] hum [3]: > 60 min | Metabolic Stability 60 min hum [% remain.] [3]: 65 % remain. | Metabolic Stability 60 min (rat) [% remain.] [6]: 72 % remain. | Metabolic Stability T½ [min] (rat) [6]: 60 (60) min | Plasma Stability 240 min (rat) [% remain.] [7]: (100) % remain. | Plasma Stability T½ [min] (rat) [7]: (240) min

COCCNC(=O)[C@@H]1COCC(=O)N2C[C@@H](N3CCN(C)CC3)C[C@H]2COc2cccc(c2)C(=O)N1C [Ex. 377, (4S,6S,13S)-N-(2-methoxyethyl)-14-methyl-6-(4-methylpiperazino)-9,15-dioxo-2,11-dioxa-8,14-diazatricyclo[14.3.1.0^4,8]icosa-1(20),16,18-triene-13-carboxamide]
Metabolic Stability T½ [min] mouse [1]: > 60 min | Metabolic Stability 60 min mouse [% remain.] [1]: 86 % remain. | Plasma Stability T½ [min] hum (in vitro [2]): > 240 min | Plasma Stability 240 min hum [% remain.] (in vitro [2]): 95 % remain. | Metabolic Stability T½ [min] hum [3]: > 60 min | Metabolic Stability 60 min hum [% remain.] [3]: 72 % remain. | Metabolic Stability 60 min (rat) [% remain.] [6]: 97 % remain. | Metabolic Stability T½ [min] (rat) [6]: 60 (60) min | Plasma Stability 240 min (rat) [% remain.] [7]: (100) % remain. | Plasma Stability T½ [min] (rat) [7]: (240) min

CC(C)CN[C@H]1C[C@H]2COc3cccc(c3)C(=O)N(C)[C@H](C(=O)NCc3ccc4ccccc4c3)COCC(=O)N2C1 [Ex. 373, (4S,6S,13S)-6-(isobutylamino)-14-methyl-N-(2-naphthylmethyl)-9,15-dioxo-2,11-dioxa-8,14-diazatricyclo[14.3.1.0^4,8]icosa-1(20),16,18-triene-13-carboxamide]
half-life at 10 µM ([1]; both sexes): 0.6 h | Metabolic Stability 60 min mouse [% remain.] [1]: 39 % remain. | Plasma Stability T½ [min] hum (in vitro [2]): > 240 min | Plasma Stability 240 min hum [% remain.] (in vitro [2]): 55 % remain. | half-life at 10 µM [3]: 0.2 h | Metabolic Stability 60 min hum [% remain.] [3]: 12 % remain. | Metabolic Stability 60 min (rat) [% remain.] [6]: 0 % remain. | half-life at 10 µM ([6]; read-out: Metabolic Stability T½ [min] (rat)): 7 min | Plasma Stability 240 min (rat) [% remain.] [7]: (100) % remain. | Plasma Stability T½ [min] (rat) [7]: (240) min

CN(C)CCNC(=O)[C@@H]1COCC(=O)N2C[C@@H](NC(=O)Cc3ccc4ccccc4c3)C[C@H]2COc2cccc(c2)C(=O)N1C [Ex. 374, (4S,6S,13S)-N-[2-(dimethylamino)ethyl]-14-methyl-6-{[2-(2-naphthyl)acetyl]amino}-9,15-dioxo-2,11-dioxa-8,14-diazatricyclo[14.3.1.0^4,8]icosa-1(20),16,18-triene-13-carboxamide]
Metabolic Stability T½ [min] mouse [1]: > 60 min | Metabolic Stability 60 min mouse [% remain.] [1]: 94 % remain. | Plasma Stability T½ [min] hum (in vitro [2]): > 240 min | Plasma Stability 240 min hum [% remain.] (in vitro [2]): 57 % remain. | Metabolic Stability T½ [min] hum [3]: > 60 min | Metabolic Stability 60 min hum [% remain.] [3]: 61 % remain. | Metabolic Stability 60 min (rat) [% remain.] [6]: 90 % remain. | Metabolic Stability T½ [min] (rat) [6]: 60 (60) min | Plasma Stability 240 min (rat) [% remain.] [7]: (82) % remain. | Plasma Stability T½ [min] (rat) [7]: (240) min
